# Laboratory results from the Kinase Knowledgebase extract (Sharma et al. 2016).
# Molecular target: EGFR (human) (UniProt P00533)
# Experiment: Assessment of EGFR Kinase Activity
# EGFR (human), sequence (P00533 whole entry, looked up): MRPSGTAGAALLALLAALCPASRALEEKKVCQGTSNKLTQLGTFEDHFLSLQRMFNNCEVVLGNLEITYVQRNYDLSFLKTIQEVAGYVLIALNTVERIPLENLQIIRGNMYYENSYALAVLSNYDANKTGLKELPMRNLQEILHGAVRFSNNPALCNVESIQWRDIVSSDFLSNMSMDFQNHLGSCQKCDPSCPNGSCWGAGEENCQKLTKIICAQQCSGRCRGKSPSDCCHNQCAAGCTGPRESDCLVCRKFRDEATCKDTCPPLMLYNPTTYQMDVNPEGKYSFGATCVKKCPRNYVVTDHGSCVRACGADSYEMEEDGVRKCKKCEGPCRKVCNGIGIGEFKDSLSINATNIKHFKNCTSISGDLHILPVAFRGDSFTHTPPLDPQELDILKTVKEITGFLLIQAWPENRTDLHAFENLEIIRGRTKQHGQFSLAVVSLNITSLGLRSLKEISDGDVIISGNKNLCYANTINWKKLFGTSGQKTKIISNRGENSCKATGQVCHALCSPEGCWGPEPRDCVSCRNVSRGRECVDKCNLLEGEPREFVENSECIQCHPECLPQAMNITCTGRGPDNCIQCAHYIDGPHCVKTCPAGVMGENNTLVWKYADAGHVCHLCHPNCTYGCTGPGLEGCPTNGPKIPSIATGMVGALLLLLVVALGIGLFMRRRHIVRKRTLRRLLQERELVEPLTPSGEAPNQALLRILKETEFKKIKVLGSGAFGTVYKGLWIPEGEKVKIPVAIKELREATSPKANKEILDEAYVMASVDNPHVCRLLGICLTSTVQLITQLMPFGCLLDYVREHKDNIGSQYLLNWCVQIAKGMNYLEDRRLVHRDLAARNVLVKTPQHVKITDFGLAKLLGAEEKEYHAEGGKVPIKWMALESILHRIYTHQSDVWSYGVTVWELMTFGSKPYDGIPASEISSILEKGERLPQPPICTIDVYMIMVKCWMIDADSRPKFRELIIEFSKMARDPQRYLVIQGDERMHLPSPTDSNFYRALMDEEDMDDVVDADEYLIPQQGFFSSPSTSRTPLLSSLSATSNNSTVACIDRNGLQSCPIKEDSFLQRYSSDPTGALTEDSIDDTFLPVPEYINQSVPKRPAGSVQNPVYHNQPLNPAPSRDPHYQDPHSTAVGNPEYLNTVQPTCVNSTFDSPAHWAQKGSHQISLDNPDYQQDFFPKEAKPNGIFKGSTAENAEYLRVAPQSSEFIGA
row,Compound,IC50 [nM]
1,CP(C)(=O)CCN(CCO)Cc1ccc(-c2ccc3ncnc(Nc4ccc5c(cnn5Cc5cccc(F)c5)c4)c3c2)o1,< 100
2,CP(C)(=O)CCNCc1ccc(-c2ccc3ncnc(Nc4ccc5c(cnn5Cc5cccc(F)c5)c4)c3c2)o1,< 100
3,CP1(=O)CCN(Cc2ccc(-c3ccc4ncnc(Nc5ccc(Br)c(Cl)c5F)c4c3)o2)CC1,< 100
4,CC1(C)COP(=O)(CCNCc2ccc(-c3ccc4ncnc(Nc5ccc(OCc6cccc(F)c6)c(Cl)c5)c4c3)o2)OC1,< 100
5,CCN(CCP(C)(C)=O)Cc1ccc(-c2ccc3ncnc(Nc4ccc5c(cnn5Cc5cccc(F)c5)c4)c3c2)o1,< 100
6,CP(C)(=O)CCNCc1ccc(-c2ccc3ncnc(Nc4ccc(OCc5cccc(F)c5)c(Cl)c4)c3c2)o1,< 100
7,CP(C)(=O)CCNCC#Cc1ccc2ncnc(Nc3ccc(OCc4cccc(F)c4)c(Cl)c3)c2c1,< 100
8,CP1(=O)CCN(Cc2ccc(-c3ccc4ncnc(Nc5ccc(Br)cc5F)c4c3)o2)CC1,100 to 1000
9,CCOP1(=O)CCN(Cc2ccc(-c3ccc4ncnc(Nc5ccc(OCc6cccc(F)c6)c(Cl)c5)c4c3)o2)CC1,< 100
10,COP(=O)(CCNCc1ccc(-c2ccc3ncnc(Nc4ccc(OCc5cccc(F)c5)c(Cl)c4)c3c2)o1)OC,< 100
11,CP1(=O)CCN(CC#Cc2ccc3ncnc(Nc4ccc5c(cnn5Cc5cccc(F)c5)c4)c3c2)CC1,< 100
12,CP(C)(=O)CNCc1ccc(-c2ccc3ncnc(Nc4ccc(OCc5cccc(F)c5)c(Cl)c4)c3c2)o1,< 100
13,C[C@@H](Nc1ncnc2ccc(-c3ccc(CN4CCP(C)(=O)CC4)o3)cc12)c1ccccc1,< 100

# More lines, now with the values ahead:
row,IC50 [nM],Compound
1,100 to 1000,Cc1cccc(COc2ccc(Nc3ncnc4ccc(-c5ccc(CN6CCP(C)(=O)CC6)o5)cc34)cc2Cl)n1
2,< 100,CP1(=O)CCN(Cc2ccc(-c3ccc4ncnc(Nc5ccc(OCc6cccc(F)c6)c(Cl)c5)c4c3)o2)CC1
3,< 100,CP1(=O)CCN(Cc2ccc(-c3ccc4ncnc(Nc5ccc6c(cnn6Cc6cccc(F)c6)c5)c4c3)o2)CC1
4,< 100,CP1(=O)CCN(Cc2ccc(-c3ccc4ncnc(Nc5ccc(OCc6ccccn6)c(Cl)c5)c4c3)o2)CC1
5,< 100,CP1(=O)CCN(Cc2ccc(-c3ccc4ncnc(Nc5ccc(OCc6cccc(F)c6)c(Br)c5)c4c3)o2)CC1
6,< 100,CP(C)(=O)CN1CCN(Cc2ccc(-c3ccc4ncnc(Nc5ccc(OCc6cccc(F)c6)c(Cl)c5)c4c3)o2)CC1
7,< 100,CP1(=O)CCN(Cc2ccc(-c3ccc4ncnc(Nc5ccc(OCc6cccc[n+]6[O-])c(Cl)c5)c4c3)o2)CC1
8,< 100,Cc1cccc(COc2ccc(Nc3ncnc4ccc(-c5ccc(CN6CCP(C)(=O)CC6)o5)cc34)cc2Cl)[n+]1[O-]
9,< 100,CP1(=O)CCN(CCCc2ccc3ncnc(Nc4ccc(OCc5cccc(F)c5)c(Cl)c4)c3c2)CC1
10,< 100,CP1(=O)CCN(CC#Cc2ccc3ncnc(Nc4ccc(OCc5cccc(F)c5)c(Cl)c4)c3c2)CC1
11,< 100,Cc1ccc(Oc2ccc(Nc3ncnc4ccc(-c5ccc(CN6CCP(C)(=O)CC6)o5)cc34)cc2C)cn1
12,< 100,CP1(=O)CCN(Cc2ccc(-c3ccc4ncnc(Nc5cccc(Cl)c5F)c4c3)o2)CC1
13,< 100,C#Cc1cc(Nc2ncnc3ccc(-c4ccc(CN5CCP(C)(=O)CC5)o4)cc23)ccc1OCc1cccc(F)c1
14,< 100,CP1(=O)CCN(C/C=C/c2ccc3ncnc(Nc4ccc(OCc5cccc(F)c5)c(Cl)c4)c3c2)CC1
15,< 100,CP1(=O)CCN(Cc2ccc(-c3ccc4ncnc(Nc5ccc(OCc6cnccn6)c(Cl)c5)c4c3)o2)CC1
